Data from ChEMBL document CHEMBL5715945 (Cancer Biol Ther, 2010).
Calls of active or inactive are those of the source. No cut-off for these calls is given here.

Columns and labels:
[1] = Toxicity in C57BL6 mouse implanted with mouse ID8 cells assessed as change in body weight at 0.5 mg/ml administered as solution in 5% sucrose measured after 30 days; assay type: cell-based; conditions: id8, 720 h, time 30 day
[2] = molecular target: Serine/threonine-protein kinase Nek6 (Homo sapiens) (UniProt Q9HC98); assay: Inhibition of NEK6 (unknown origin) at 0.1 uM relative to control; values are per cent of control
4T1 [3] = assay: Inhibition of colony formation in mouse 4T1 cells assessed as reduction in cell size measured after 10 days by phase contrast microscopy analysis; assay type: functional, cell-based; conditions: dose 0.4-1 µM, time 10.0 day
[4] = molecular target: Mitogen-activated protein kinase 1 (Homo sapiens) (UniProt P28482); assay: Inhibition of MAPK1 (unknown origin) at 0.1 uM relative to control; values are per cent of control
[5] = molecular target: cAMP-dependent protein kinase (PKA) (Homo sapiens) (UniProt P22694+P17612+P22612); assay: Inhibition of PKA (unknown origin) at 0.1 uM relative to control; values are per cent of control
4T1 [6] = assay: Inhibition of cell migration in mouse 4T1 cells assessed as maximal efficacy at 0.4 uM incubated for 4 hrs by millicell-motility assay; assay type: functional
[7] = molecular target: Focal adhesion kinase 1 (Mus musculus) (UniProt P34152); assay: Inhibition of FAK phosphorylation at Tyr397 residue in mouse 4T1 cells harbouring mCherry red fluorescent protein at 0.1 to 1 uM incubated for 1 hr by immunoblotting analysis; assay type: cell-based; conditions: dose 0.1-1 µM
[8] = molecular target: Ephrin type-A receptor 1 (Homo sapiens) (UniProt P21709); assay: Inhibition of EphA1 (unknown origin) at 1 uM relative to control; values are per cent of control
4T1 [9] = assay: Induction of apoptosis in mouse 4T1 suspended cells at 0.1 to 1 uM incubated for 48 hrs by PI staining based flow cytometry analysis; assay type: functional, cell-based; conditions: dose 0.1-1 µM
4T1 [10] = assay: Induction of apoptosis in mouse 4T1 cells assessed as increase in cell apoptosis at 0.1 to 1 uM measured after 2 days by visual analysis; assay type: functional; conditions: dose 0.1-1 µM, time 2 day
4T1 [11] = assay: Effect on p130Cas phosphorylation at Tyr410 residue in mouse 4T1 cultured as 3D spheroids at 0.1 uM incubated for 24 hrs by immunoblotting analysis; assay type: functional, cell-based
[12] = molecular target: Epidermal growth factor receptor (Homo sapiens) (UniProt P00533); assay: Inhibition of EGFR (unknown origin) at 1 uM relative to control; values are per cent of control
[13] = molecular target: Activated CDC42 kinase 1 (Homo sapiens) (UniProt Q07912); assay: Inhibition of ACK1 (unknown origin) at 1 uM relative to control; values are per cent of control
[14] = molecular target: Death-associated protein kinase 1 (Homo sapiens) (UniProt P53355); assay: Inhibition of DAPK1 (unknown origin) at 0.1 uM relative to control; values are per cent of control
[15] = molecular target: Insulin-like growth factor 1 receptor (Homo sapiens) (UniProt P08069); assay: Inhibition of IGF-1R (unknown origin) at 0.1 uM relative to control; values are per cent of control
[16] = molecular target: Tyrosine-protein kinase Lck (Homo sapiens) (UniProt P06239); assay: Inhibition of Lck (unknown origin) at 0.1 uM relative to control; values are per cent of control
[17] = molecular target: Platelet-derived growth factor receptor beta (Homo sapiens) (UniProt P09619); assay: Inhibition of PDGFRb (unknown origin) at 1 uM relative to control; values are per cent of control
[18] = molecular target: Tyrosine-protein kinase ABL1 (Homo sapiens) (UniProt P00519); assay: Inhibition of Abl (unknown origin) at 0.1 uM relative to control; values are per cent of control
Homo sapiens = species on record: Homo sapiens; assay: Inhibition of p70S6K (unknown origin) at 0.1 uM relative to control; values are per cent of control
[19] = molecular target: Dual specificity mitogen-activated protein kinase kinase 1 (Homo sapiens) (UniProt Q02750); assay: Inhibition of MEK1 (unknown origin) at 0.1 uM relative to control; values are per cent of control
4T1 [20] = assay: Effect on p130Cas phosphorylation at Tyr249 residue in mouse 4T1 cultured as 3D spheroids at 0.1 uM incubated for 24 hrs by immunoblotting analysis; assay type: functional, cell-based
[21] = molecular target: Proto-oncogene tyrosine-protein kinase receptor Ret (Homo sapiens) (UniProt P07949); assay: Inhibition of Ret (unknown origin) at 1 uM relative to control; values are per cent of control
[22] = molecular target: Tyrosine-protein kinase ABL1 (Homo sapiens) (UniProt P00519); assay: Inhibition of Abl (unknown origin) at 1 uM relative to control; values are per cent of control
4T1 [23] = assay: Induction of apoptosis in mouse 4T1 suspended cells assessed as increase in cleaved caspase 3 expression at 0.4 uM incubated for 24 hrs by immunoblotting analysis; assay type: functional, cell-based
[24] = molecular target: High affinity nerve growth factor receptor (Homo sapiens) (UniProt P04629); assay: Inhibition of TrkA (unknown origin) at 1 uM relative to control; values are per cent of control
[25] = molecular target: Tyrosine-protein kinase Fyn (Homo sapiens) (UniProt P06241); assay: Inhibition of Fyn (unknown origin) at 1 uM relative to control; values are per cent of control
[26] = molecular target: High affinity nerve growth factor receptor (Homo sapiens) (UniProt P04629); assay: Inhibition of TrkA (unknown origin) at 0.1 uM relative to control; values are per cent of control
4T1 [27] = assay: Antitumor activity against mouse 4T1 cells harbouring mCherry red fluorescent protein implanted in BALB/c mouse assessed as increase in apoptosis in tumor at 30 to 100 mg/kg, sc bid measured after 5 days by TUNEL staining based microscopic analysis; assay type: functional, organism-based; conditions: dose 30-100 mg/kg, time 5.0 day
4T1 [28] = assay: Effect on p130Cas phosphorylation in mouse 4T1 cultured as […] at 0.1 to 1 uM incubated for 24 hrs by immunoblotting analysis; assay type: functional, cell-based; conditions: dose 0.1-1 µM
[29] = molecular target: Rho-associated protein kinase 1 (Homo sapiens) (UniProt Q13464); assay: Inhibition of ROCK1 (unknown origin) at 0.1 uM relative to control; values are per cent of control
[30] = molecular target: Fibroblast growth factor receptor 1 (Homo sapiens) (UniProt P11362); assay: Inhibition of FGFR1 (unknown origin) at 0.1 uM relative to control; values are per cent of control
Sequence of Fibroblast growth factor receptor 1 (Homo sapiens) (P11362 22-822 limits assumed): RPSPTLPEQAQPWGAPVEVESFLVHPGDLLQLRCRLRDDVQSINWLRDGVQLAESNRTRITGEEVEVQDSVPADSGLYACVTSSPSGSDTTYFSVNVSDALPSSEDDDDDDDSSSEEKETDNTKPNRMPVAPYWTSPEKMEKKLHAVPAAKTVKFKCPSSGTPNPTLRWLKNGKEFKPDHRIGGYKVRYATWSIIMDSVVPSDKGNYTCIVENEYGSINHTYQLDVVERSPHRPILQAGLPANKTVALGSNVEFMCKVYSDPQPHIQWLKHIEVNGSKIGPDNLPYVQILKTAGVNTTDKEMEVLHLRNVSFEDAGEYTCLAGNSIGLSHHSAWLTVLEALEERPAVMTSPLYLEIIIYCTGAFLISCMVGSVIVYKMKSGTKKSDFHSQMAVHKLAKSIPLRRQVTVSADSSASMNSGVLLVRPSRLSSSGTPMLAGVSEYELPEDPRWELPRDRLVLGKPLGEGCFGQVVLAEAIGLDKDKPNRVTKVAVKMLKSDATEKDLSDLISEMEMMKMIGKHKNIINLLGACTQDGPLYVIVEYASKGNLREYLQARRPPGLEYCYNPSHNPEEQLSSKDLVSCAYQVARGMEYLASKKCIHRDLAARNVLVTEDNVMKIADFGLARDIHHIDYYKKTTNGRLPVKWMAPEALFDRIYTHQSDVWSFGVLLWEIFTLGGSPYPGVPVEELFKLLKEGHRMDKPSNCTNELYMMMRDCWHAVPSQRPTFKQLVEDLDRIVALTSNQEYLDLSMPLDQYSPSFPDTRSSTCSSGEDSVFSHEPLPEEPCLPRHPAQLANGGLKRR

Sequence of Tyrosine-protein kinase ABL1 (Homo sapiens) (P00519 whole entry): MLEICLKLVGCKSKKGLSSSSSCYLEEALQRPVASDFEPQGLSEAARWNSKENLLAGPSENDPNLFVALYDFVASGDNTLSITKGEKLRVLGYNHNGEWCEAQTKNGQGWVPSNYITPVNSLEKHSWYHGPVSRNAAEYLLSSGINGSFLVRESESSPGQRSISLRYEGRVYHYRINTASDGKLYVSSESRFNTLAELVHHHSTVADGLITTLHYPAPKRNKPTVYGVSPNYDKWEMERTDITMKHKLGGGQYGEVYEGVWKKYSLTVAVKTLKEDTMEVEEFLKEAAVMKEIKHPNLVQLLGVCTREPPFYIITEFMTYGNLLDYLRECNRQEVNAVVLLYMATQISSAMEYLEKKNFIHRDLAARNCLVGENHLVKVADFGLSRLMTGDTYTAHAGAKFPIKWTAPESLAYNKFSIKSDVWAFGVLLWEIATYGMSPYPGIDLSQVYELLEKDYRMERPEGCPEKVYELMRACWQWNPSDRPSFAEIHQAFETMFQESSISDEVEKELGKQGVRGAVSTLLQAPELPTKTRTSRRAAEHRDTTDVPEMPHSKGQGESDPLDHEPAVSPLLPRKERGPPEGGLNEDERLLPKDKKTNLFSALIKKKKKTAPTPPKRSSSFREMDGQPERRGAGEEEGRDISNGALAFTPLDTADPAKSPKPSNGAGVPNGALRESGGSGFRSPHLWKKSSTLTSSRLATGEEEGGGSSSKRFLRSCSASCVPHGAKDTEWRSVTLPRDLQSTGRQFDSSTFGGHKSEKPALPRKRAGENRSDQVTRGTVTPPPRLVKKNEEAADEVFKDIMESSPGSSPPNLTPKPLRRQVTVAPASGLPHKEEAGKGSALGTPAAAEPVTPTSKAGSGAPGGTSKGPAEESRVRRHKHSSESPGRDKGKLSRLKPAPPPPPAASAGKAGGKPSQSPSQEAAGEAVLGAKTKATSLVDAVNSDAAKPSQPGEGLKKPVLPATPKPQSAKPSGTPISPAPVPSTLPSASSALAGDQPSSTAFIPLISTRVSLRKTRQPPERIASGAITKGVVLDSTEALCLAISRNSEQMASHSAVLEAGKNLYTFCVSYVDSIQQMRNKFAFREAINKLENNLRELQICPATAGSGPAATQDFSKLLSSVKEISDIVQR
Sequence of High affinity nerve growth factor receptor (Homo sapiens) (P04629 33-796 limits assumed): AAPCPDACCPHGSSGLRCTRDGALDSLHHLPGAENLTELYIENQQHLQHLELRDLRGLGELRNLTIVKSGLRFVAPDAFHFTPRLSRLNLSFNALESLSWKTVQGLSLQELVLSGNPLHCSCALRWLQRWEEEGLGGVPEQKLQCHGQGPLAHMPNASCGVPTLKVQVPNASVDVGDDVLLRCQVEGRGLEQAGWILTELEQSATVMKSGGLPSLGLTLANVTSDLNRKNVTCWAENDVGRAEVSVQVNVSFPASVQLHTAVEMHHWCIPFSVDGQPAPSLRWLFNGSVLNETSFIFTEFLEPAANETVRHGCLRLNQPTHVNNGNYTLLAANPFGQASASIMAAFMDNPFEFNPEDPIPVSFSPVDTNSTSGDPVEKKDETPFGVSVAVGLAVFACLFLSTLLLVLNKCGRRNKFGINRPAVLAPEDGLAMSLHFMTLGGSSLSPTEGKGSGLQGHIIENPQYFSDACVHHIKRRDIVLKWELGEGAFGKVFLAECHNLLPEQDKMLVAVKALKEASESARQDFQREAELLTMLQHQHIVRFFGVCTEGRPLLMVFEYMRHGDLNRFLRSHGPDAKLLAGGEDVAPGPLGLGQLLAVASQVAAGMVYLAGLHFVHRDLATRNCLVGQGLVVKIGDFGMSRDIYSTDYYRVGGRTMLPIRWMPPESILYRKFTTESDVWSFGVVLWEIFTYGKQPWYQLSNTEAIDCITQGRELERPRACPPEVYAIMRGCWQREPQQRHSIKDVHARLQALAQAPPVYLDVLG
Sequence of Activated CDC42 kinase 1 (Homo sapiens) (Q07912 whole entry, looked up): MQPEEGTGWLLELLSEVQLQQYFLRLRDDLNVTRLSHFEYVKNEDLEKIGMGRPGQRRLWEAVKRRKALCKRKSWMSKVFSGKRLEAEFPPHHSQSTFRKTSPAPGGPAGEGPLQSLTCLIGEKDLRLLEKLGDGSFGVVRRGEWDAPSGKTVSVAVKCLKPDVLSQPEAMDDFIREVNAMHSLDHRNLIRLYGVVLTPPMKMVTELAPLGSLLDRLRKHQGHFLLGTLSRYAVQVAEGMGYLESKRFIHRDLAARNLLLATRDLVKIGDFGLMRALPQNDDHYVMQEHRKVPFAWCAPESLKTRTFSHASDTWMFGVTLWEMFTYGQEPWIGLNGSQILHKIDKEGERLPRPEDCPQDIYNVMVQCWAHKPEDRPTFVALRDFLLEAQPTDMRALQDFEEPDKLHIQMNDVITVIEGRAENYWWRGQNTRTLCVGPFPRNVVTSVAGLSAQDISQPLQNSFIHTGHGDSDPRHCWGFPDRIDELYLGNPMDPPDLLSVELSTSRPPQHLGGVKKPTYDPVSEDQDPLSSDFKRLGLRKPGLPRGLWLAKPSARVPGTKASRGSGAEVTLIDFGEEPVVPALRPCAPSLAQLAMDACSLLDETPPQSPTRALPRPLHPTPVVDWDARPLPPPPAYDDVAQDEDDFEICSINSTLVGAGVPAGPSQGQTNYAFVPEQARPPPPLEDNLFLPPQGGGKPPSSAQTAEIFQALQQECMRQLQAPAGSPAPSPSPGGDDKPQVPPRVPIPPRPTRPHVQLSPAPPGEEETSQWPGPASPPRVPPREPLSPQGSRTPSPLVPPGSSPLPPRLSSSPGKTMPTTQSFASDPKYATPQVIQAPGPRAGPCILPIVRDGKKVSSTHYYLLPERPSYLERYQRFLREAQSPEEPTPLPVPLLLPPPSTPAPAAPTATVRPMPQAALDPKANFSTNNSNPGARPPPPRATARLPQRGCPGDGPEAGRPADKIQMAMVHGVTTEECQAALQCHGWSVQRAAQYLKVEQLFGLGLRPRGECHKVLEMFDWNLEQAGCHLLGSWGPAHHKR
Sequence of Platelet-derived growth factor receptor beta (Homo sapiens) (P09619 whole entry): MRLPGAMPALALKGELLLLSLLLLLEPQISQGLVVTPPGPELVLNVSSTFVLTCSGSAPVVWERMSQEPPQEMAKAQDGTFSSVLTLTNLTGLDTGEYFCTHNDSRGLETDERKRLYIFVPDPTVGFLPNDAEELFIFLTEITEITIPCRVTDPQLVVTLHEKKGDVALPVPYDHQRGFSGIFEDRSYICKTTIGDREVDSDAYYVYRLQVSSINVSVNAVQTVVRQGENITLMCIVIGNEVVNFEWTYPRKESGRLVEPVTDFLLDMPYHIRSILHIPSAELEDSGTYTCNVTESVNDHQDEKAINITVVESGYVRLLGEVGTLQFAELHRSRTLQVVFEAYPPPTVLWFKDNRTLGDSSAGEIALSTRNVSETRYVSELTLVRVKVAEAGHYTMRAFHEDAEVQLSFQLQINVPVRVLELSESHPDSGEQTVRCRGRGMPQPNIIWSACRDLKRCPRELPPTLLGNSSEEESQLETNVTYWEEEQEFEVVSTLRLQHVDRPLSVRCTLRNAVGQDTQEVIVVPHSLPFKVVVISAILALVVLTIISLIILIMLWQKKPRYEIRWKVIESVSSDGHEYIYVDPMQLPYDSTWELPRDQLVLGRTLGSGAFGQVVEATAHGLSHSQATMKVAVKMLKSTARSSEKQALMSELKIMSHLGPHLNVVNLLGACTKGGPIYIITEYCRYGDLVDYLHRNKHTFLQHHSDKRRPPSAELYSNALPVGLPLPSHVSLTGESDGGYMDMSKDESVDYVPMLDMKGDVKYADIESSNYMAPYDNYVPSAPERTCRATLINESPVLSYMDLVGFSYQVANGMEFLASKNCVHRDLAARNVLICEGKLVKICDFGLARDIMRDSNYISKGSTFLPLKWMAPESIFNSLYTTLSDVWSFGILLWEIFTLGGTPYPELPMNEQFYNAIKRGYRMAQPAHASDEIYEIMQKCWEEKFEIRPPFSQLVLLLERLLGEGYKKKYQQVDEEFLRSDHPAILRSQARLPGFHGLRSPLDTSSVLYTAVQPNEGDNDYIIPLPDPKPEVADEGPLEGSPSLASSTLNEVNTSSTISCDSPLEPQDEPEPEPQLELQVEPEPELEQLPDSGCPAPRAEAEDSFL

residual activity [2]: 110% | residual activity [4]: 78% | residual activity [5]: 114% | inhibition [7]: Active | residual activity [8]: 108% | residual activity [12]: 106% | residual activity [13]: 16% | residual activity [15]: 123% | residual activity [16]: 76% | residual activity [17]: 105% | residual activity [18]: 104% | residual activity (Homo sapiens): 95% | residual activity [19]: 79% | residual activity [21]: 67% | residual activity [22]: 112% | residual activity [24]: 27% | residual activity [25]: 78% | residual activity [26]: 80% | residual activity [29]: 96% | residual activity [30]: 98%
SMILES: CNC(=O)c1ccccc1Nc1cc(Nc2ccc(N3CCOCC3)cc2OC)ncc1C(F)(F)F [VS-4718]
Activity [1]: Non-Toxic | inhibition (4T1 [3]): Dose-Dependent Effect | Imax (4T1 [6]): ~60% | Activity (4T1 [9]): inactive | Activity (4T1 [10]): >50% | Activity (4T1 [11]): Active | residual activity [14]: 104% | Activity (4T1 [20]): Active | Activity (4T1 [23]): Active | Activity (4T1 [27]): Active | Activity (4T1 [28]): inactive
